Assay results as given in ChEMBL document CHEMBL3045695, “2D and 3D QSAR analyses to predict favorable substitution sites in anilino-monoindolylmaleimides acting as PKCII selective inhibitors” (Med Chem Res, 2011).

Target: Protein kinase C beta type (Homo sapiens, UniProt P05771)
Assay: Inhibition of PKCbeta2 (unknown origin)

Protein kinase C beta type, sequence (P05771 whole entry): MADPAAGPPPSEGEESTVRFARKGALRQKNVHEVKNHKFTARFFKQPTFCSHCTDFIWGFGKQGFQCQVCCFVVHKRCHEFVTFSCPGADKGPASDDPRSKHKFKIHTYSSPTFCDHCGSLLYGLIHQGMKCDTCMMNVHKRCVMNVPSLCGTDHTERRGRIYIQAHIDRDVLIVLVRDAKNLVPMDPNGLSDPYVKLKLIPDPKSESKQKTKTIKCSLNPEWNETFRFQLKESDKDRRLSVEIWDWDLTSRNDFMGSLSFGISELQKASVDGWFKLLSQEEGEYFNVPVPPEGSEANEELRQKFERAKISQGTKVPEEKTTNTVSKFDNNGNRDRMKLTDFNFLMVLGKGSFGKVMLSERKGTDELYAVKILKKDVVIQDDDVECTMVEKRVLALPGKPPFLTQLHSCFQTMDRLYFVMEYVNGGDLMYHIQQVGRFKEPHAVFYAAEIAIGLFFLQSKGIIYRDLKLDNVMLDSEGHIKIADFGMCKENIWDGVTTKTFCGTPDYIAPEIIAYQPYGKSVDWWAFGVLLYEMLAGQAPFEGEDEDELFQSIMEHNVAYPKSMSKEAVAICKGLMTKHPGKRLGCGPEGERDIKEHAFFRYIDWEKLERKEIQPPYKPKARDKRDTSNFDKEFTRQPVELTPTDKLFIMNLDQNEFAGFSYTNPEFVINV

SMILES: CN1CCN(CCCn2cc(C3=C(Nc4ccccc4)C(=O)NC3=O)c3ccccc32)CC1
- IC50 (read-out: pIC50 (converted)): 23.4 nM

SMILES: O=C1NC(=O)C(c2c3n(c4ccccc24)CC[C@@H](CO)C3)=C1Nc1ccccc1
- IC50 (read-out: IC50): 17 nM

SMILES: CCN(CC)C[C@H]1Cc2c(C3=C(Nc4ccccc4)C(=O)NC3=O)c3ccccc3n2C1
- IC50 (read-out: IC50): 32 nM

SMILES: O=C1NC(=O)C(c2c[nH]c3ccccc23)=C1Nc1cccc(C(F)(F)F)c1
- IC50 (read-out: pIC50 (converted)): 1480 nM

SMILES: Cc1ccc(NC2=C(c3c[nH]c4ccccc34)C(=O)NC2=O)cc1
- IC50 (read-out: pIC50 (converted)): 490 nM

SMILES: O=C1NC(=O)C(c2c3n(c4ccccc24)CC[C@H](CO)C3)=C1Nc1ccccc1
- IC50 (read-out: IC50): 6 nM

SMILES: CN(C)C[C@@H]1CCn2c(c(C3=C(Nc4ccccc4)C(=O)NC3=O)c3ccccc32)C1
- IC50 (read-out: IC50): 25 nM

SMILES: NC[C@H]1Cc2c(C3=C(Nc4ccccc4)C(=O)NC3=O)c3ccccc3n2C1
- IC50 (read-out: IC50): 1.4 nM

SMILES: CNC[C@H]1Cc2c(C3=C(Nc4ccccc4)C(=O)NC3=O)c3ccccc3n2C1
- IC50 (read-out: IC50): 2.2 nM

SMILES: N=C(N)SCCCn1cc(C2=C(Nc3ccccc3)C(=O)NC2=O)c2ccccc21
- IC50 (read-out: pIC50 (converted)): 2.04 nM

SMILES: Cc1ccccc1NC1=C(c2c[nH]c3ccccc23)C(=O)NC1=O
- IC50 (read-out: pIC50 (converted)): 2190 nM

SMILES: CCN(C)C[C@H]1Cc2c(C3=C(Nc4ccccc4)C(=O)NC3=O)c3ccccc3n2C1
- IC50 (read-out: IC50): 5 nM

SMILES: CCNC[C@H]1Cc2c(C3=C(Nc4ccccc4)C(=O)NC3=O)c3ccccc3n2C1
- IC50 (read-out: IC50): 2.4 nM

SMILES: CC(=O)NC[C@H]1Cc2c(C3=C(Nc4ccccc4)C(=O)NC3=O)c3ccccc3n2C1
- IC50 (read-out: IC50): 7.9 nM

SMILES: COc1cccc(NC2=C(c3c[nH]c4ccccc34)C(=O)NC2=O)c1
- IC50 (read-out: pIC50 (converted)): 759 nM

SMILES: CN(C)C[C@@H]1Cc2c(C3=C(Nc4ccccc4)C(=O)NC3=O)c3ccccc3n2C1
- IC50 (read-out: IC50): 8 nM

SMILES: O=C1NC(=O)C(c2cn(CCCN3CCCCC3)c3ccccc23)=C1Nc1ccccc1
- IC50 (read-out: pIC50 (converted)): 17.4 nM

SMILES: O=C1NC(=O)C(c2c3n(c4ccccc24)C[C@H](CO)C3)=C1Nc1ccccc1
- IC50 (read-out: IC50): 14 nM

SMILES: CN(C)CCCCCn1cc(C2=C(Nc3ccccc3)C(=O)NC2=O)c2ccccc21
- IC50 (read-out: pIC50 (converted)): 41.7 nM

SMILES: CN(C)C[C@@H]1CCc2c(C3=C(Nc4ccccc4)C(=O)NC3=O)c3ccccc3n2C1
- IC50 (read-out: IC50): 6 nM

SMILES: CN(C)C[C@H]1CCn2c(c(C3=C(Nc4ccccc4)C(=O)NC3=O)c3ccccc32)C1
- IC50 (read-out: IC50): 2 nM
